Measurements reported in US10501461B2, “Tyrosine amide derivatives as Rho-kinase inhibitors” (CHIESI FARMACEUTICI S.P.A., priority 2017, dated 2019).

What was measured:
[1] = target: Rho kinase 1 (ROCK-I) (Homo sapiens, UniProt Q13464); experiment: In vitro Rho kinase inhibitory activity assay (ADP-Glo), Rho kinase 1; assay type: biochemical; details: 10 μM ATP, 25° C., expressed as range of activity
How it was run: (§1)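 Each kinase (ROCK1 or ROCK2) sat with compound for 30 min at 25 °C before 10 μM ATP started a 1 h reaction on 2.5 μM myelin basic protein (Tris pH 7.5, MgCl2, BSA, DTT, 1% DMSO). ADP formed was read by ADP-Glo luminescence. Dose-response IC50s were converted to Ki by Cheng-Prusoff.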

[2] = target: Rho kinase 2 (ROCK-II) (Homo sapiens, UniProt O75116); experiment: In vitro Rho kinase inhibitory activity assay (ADP-Glo), Rho kinase 2; assay type: biochemical; details: 10 μM ATP, 25° C., expressed as range of activity
How it was run: as §1

Sequence of Rho kinase 1 (ROCK-I) (Q13464 whole entry): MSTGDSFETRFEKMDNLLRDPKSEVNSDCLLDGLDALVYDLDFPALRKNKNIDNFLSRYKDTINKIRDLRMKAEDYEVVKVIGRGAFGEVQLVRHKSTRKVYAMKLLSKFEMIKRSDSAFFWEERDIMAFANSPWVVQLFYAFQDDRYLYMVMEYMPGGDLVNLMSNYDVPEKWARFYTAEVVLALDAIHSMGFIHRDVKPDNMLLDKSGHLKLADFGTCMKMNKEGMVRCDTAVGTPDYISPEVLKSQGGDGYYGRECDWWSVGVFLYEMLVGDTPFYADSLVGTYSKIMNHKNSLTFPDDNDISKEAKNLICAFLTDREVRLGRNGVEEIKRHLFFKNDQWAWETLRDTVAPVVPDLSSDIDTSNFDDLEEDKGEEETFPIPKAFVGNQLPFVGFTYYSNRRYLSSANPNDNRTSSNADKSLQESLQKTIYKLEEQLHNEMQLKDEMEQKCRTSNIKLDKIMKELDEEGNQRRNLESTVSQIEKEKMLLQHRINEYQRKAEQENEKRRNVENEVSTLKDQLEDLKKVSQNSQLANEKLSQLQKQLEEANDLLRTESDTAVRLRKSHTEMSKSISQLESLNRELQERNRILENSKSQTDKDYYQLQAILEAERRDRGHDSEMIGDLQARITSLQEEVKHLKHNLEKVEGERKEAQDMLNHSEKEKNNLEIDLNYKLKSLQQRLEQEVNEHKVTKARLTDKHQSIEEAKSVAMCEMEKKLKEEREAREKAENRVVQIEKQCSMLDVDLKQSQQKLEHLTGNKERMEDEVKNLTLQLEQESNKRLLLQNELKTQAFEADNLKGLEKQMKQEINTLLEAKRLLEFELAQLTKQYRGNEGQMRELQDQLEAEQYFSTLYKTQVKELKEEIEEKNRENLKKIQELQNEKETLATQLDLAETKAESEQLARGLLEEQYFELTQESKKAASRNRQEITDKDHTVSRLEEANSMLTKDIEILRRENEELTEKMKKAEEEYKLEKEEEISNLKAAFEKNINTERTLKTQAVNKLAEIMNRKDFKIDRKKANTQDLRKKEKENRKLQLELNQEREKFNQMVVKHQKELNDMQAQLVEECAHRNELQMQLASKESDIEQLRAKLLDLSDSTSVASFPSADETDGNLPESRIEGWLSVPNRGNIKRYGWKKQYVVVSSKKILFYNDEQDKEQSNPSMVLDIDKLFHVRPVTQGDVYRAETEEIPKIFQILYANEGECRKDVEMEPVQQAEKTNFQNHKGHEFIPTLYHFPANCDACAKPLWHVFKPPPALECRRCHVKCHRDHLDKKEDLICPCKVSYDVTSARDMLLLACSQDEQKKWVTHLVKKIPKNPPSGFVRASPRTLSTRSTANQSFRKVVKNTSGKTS
Sequence of Rho kinase 2 (ROCK-II) (O75116 whole entry): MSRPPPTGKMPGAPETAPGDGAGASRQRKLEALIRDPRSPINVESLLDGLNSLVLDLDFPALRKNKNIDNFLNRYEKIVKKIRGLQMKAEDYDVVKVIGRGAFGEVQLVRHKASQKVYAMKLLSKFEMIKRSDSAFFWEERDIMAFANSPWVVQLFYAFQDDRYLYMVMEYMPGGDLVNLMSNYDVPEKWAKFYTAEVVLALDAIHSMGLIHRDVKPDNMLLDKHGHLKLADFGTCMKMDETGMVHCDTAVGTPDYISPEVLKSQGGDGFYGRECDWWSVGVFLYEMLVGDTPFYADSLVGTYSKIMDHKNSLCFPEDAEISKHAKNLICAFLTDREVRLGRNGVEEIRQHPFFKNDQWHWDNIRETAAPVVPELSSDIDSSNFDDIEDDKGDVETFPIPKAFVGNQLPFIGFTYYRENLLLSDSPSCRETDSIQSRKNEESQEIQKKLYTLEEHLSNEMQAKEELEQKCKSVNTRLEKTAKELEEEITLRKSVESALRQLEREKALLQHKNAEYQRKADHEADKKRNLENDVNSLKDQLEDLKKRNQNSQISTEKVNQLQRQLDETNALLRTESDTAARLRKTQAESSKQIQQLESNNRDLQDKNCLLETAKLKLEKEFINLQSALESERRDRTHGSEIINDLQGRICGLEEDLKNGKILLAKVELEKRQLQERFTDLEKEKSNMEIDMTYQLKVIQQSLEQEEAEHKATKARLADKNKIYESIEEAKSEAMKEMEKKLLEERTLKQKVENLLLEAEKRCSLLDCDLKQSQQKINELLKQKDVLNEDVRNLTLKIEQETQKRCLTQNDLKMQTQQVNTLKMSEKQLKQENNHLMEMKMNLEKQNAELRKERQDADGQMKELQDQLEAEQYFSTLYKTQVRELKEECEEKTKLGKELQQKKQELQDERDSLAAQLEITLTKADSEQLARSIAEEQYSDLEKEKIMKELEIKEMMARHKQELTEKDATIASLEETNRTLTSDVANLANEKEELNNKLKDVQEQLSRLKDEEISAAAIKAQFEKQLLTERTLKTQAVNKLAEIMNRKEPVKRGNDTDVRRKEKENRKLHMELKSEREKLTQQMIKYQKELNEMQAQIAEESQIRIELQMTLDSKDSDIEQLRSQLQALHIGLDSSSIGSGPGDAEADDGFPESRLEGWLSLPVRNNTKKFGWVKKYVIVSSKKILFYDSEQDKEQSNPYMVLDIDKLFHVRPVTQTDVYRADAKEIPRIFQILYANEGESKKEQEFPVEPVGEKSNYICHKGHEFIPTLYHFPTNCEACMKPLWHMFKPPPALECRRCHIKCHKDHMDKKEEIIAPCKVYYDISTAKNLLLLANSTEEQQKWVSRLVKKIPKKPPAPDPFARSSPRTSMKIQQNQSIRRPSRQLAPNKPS

| SMILES | Ki [1] [nM] | Ki [2] [nM] |
| --- | --- | --- |
| Cc1c[nH]c2nccc(Oc3ccc(CC(N)C(=O)N4CCCCC4)cc3F)c12 (stereo not drawn) [Example 77, 2-amino-3-(3-fluoro-4-((3-methyl-1H-pyrrolo[2,3-b]pyridin-4-yl)oxy)phenyl)-1-(piperidin-1-yl)propan-1-one] | < 3 | < 3 |
| Cc1c[nH]c2nccc(Oc3ccc(C[C@H](N)C(=O)N4CCN5CCOCC5C4)cc3F)c12 (stereo partly drawn) [Example 16, (2S)-2-amino-3-(3-fluoro-4-((3-methyl-1H-pyrrolo[2,3-b]pyridin-4-yl)oxy)phenyl)-1-(hexahydropyrazino[2,1-c][1,4]oxazin-8(1H)-yl)propan-1-one] | < 3 | < 3 |
| N[C@@H](Cc1ccc(Oc2ncnc3[nH]ccc23)cc1)C(=O)N1CCN(Cc2ccccc2)CC1 [Example 226, (S)-3-(4-((7H-pyrrolo[2,3-d]pyrimidin-4-yl)oxy)phenyl)-2-amino-1-(4-benzylpiperazin-1-yl)propan-1-one] | 3 to 30 | 3 to 30 |
| CNC(=O)c1ccc(CN2CCN(C(=O)[C@@H](N)Cc3ccc(Oc4ccnc5[nH]cc(C)c45)c(F)c3)CC2)o1 [Example 166, (S)-5-((4-(2-amino-3-(3-fluoro-4-((3-methyl-1H-pyrrolo[2,3-b]pyridin-4-yl)oxy)phenyl)propanoyl)piperazin-1-yl)methyl)-N-methylfuran-2-carboxamide] | < 3 | < 3 |
| Cc1c[nH]c2nccc(Oc3ccc(C[C@H](N)C(=O)N4CCN(C(=O)C5CCCCC5)CC4)cc3F)c12 [Example 168, (S)-2-amino-1-(4-(cyclohexanecarbonyl)piperazin-1-yl)-3-(3-fluoro-4-((3-methyl-1H-pyrrolo[2,3-b]pyridin-4-yl)oxy)phenyl)propan-1-one] | < 3 | < 3 |
| COc1ccc(CN2CCN(C(=O)C(N)Cc3ccc(Oc4ccnc5[nH]cc(C)c45)c(F)c3)CC2)cc1 (stereo not drawn) [Example 75, 2-amino-3-(3-fluoro-4-((3-methyl-1H-pyrrolo[2,3-b]pyridin-4-yl)oxy)phenyl)-1-(4-(4-methoxybenzyl)piperazin-1-yl)propan-1-one] | < 3 | < 3 |

Other lines, results leading:

| Ki [1] [nM] | Ki [2] [nM] | SMILES |
| --- | --- | --- |
| < 3 | < 3 | CN1CCC(NC(=O)[C@@H](N)Cc2ccc(Oc3ccnc4[nH]cc(C#N)c34)c(F)c2)CC1 [Example 222, (S)-2-amino-3-(4-((3-cyano-1H-pyrrolo[2,3-b]pyridin-4-yl)oxy)-3-fluorophenyl)-N-(1-methylpiperidin-4-yl)propanamide] |
| 3 to 30 | 3 to 30 | O=C(NC(Cc1ccc(Oc2ccnc3[nH]ccc23)cc1)C(=O)Nc1ccccc1)C1CCNC1 (stereo not drawn) [Example 179, N-(3-(4-((1H-pyrrolo[2,3-b]pyridin-4-yl)oxy)phenyl)-1-oxo-1-(phenylamino)propan-2-yl)pyrrolidine-3-carboxamide] |
| 3 to 30 | 3 to 30 | O=C(NC(Cc1ccc(Oc2ccnc3[nH]ccc23)cc1)C(=O)NC1CCCCC1)C1CCNC1 (stereo not drawn) [Example 180, N-(3-(4-((1H-pyrrolo[2,3-b]pyridin-4-yl)oxy)phenyl)-1-(cyclohexylamino)-1-oxopropan-2-yl)pyrrolidine-3-carboxamide] |
| < 3 | < 3 | Cc1c[nH]c2nccc(Oc3ccc(CC(N)C(=O)NCCc4ccccc4)cc3F)c12 (stereo not drawn) [Example 76, 2-amino-3-(3-fluoro-4-((3-methyl-1H-pyrrolo[2,3-b]pyridin-4-yl)oxy)phenyl)-N-phenethylpropanamide] |
| < 3 | < 3 | Cc1c[nH]c2nccc(Oc3ccc(C[C@H](N)C(=O)N4CCN(C)C(C)(C)C4)cc3F)c12 [Example 18, (S)-2-amino-3-(3-fluoro-4-((3-methyl-1H-pyrrolo[2,3-b]pyridin-4-yl)oxy)phenyl)-1-(3,3,4-trimethylpiperazin-1-yl)propan-1-one] |
| < 3 | < 3 | Cc1c[nH]c2nccc(Oc3ccc(CC(N)C(=O)N4CCN(Cc5ccncc5)CC4)cc3F)c12 (stereo not drawn) [Example 51, 2-amino-3-(3-fluoro-4-((3-methyl-1H-pyrrolo[2,3-b]pyridin-4-yl)oxy)phenyl)-1-(4-(pyridin-4-ylmethyl)piperazin-1-yl)propan-1-one] |
